Experimental data published in patent publication US11771765B2, “Light augmented treatment method” (The Procter & Gamble Company, priority 2019, dated 2023).

Legend:
M. furfur = M. furfur viability on mDixon agar plates after Piroctone Olamine and 409 nm light (Table 3); assay type: cell-based, Malassezia furfur; parameters: key to growth on mDixon agar plate (score): +: a continuous fungal lawn; +/−: a lawn with breaks allowing the agar to show; −: 0 to 5 colonies
Protocol: M. furfur is incubated for one hour with the indicated concentrations of Piroctone Olamine then a cell pellet of 4 OD*mL is collected by centrifugation so that most of the anti-fungal material has been removed. The cell pellet is suspended in 4.2 mL PBS and 1 mL samples are distributed to four 12 well plates and treated with light (409 nm, 1200 fc) for 1, 10 or 60 minutes or stored in the dark. Samples are processed as described previously with 600 uL diluted into 13 mL mDixon and 50 uL of the photolyzed cells are diluted into 50 uL of mDixon then three 40 uL+360 uL mDixon dilutions are prepared.
Where +=a continuous fungal lawn, +/−=a lawn with breaks allowing the agar to show, −=0 to 5 colonies
After the photolysis, 0.6 mL is added to 13 mL fresh mDixon and grown overnight but, in addition, 50 uL is added to 50 uL mDixon then that sample is diluted 3 more times 40 uL=>400 uL and 10 uL of each of the dilutions are plated in duplicate on mDixon agar plates.

M. furfur CBS 7982 = test: Fractional Inhibitor Concentration (FIC): antimicrobial plus 409 nm light on M. furfur growth; assay type: cell-based, Malassezia furfur; details: for growth, OD 600 nm: 16 h growth
Protocol: Fractional Inhibitor Concentration (FIC) is a conventional methodology for evaluating the interaction of two antimicrobial chemicals. […] In an embodiment of the present invention, FIC is used to determine combinatorial effects of one chemical and exposure to light on Malassezia growth and/or viability in an in vitro system.
• 1. M. furfur CBS 7982 cells are exposed to a varying concentrations of an antimicrobial active (e.g. ZPT, Piroctone Olamine) for a specified amount of time (e.g. 2 min to 3 hours). • 2. After exposure, the antimicrobial is washed away by centrifugation of the cells and a series of washes • 3. Cells are then exposed to light at a wavelength of 409 nm for varying lengths of time • 4. Cells are then allowed to grow up overnight (e.g. 17 h) to determine the impact of the treatment on viability and growth of the organism by measuring OD600 II. Data Analysis: • 1. Inhibition of growth is determined to be where the OD value obtained is <=50% of the untreated control • 2. The lowest concentration value of the antimicrobial agent which inhibits growth is determined • 3. Likewise, the shortest light exposure time is determined that gives growth inhibition • 4. Finally, the combination of the lowest concentration of the antimicrobial and the shortest light exposure time that provides growth inhibition is determined • 5. The FIC value is determined using the calculation below:
[formula] • 6. The combinatorial effect of the antimicrobial and light is classified according to the chart below: […]
M. furfur is incubated for one hour with varying concentrations of Piroctone Olamine. Cell pellets are collected by centrifugation so that most of the anti-fungal material has been removed. The cell pellet is suspended in PBS and 500 uL samples are distributed to four 12 well plates and treated with light (409 nm) for 1, 10 or 60 minutes or stored in the dark. Samples are then diluted into mDixon, and incubated for 16 h with subsequent growth measured by OD 600 nm.
M. furfur is incubated for one hour with varying concentrations of Hinokitiol. Cell pellets are collected by centrifugation so that most of the anti-fungal material has been removed. The cell pellet is suspended in PBS and 500 uL samples are distributed to four 12 well plates and treated with light (409 nm) for 1, 10 or 60 minutes or stored in the dark. Samples are then diluted into mDixon, and incubated for 27 h with subsequent growth measured by OD 600 nm. […]

protoporphyrin IX (PPIX) = test: Protoporphyrin IX levels in treated M. furfur cells by HPLC; assay type: cell-based

Cc1cc(CC(C)CC(C)(C)C)n(O)c(=O)c1.NCCO (stereo not shown) [Piroctone Olamine, 1-Hydroxy-4-methyl-6-(2,4,4-trimethylpentyl)-2-pyridone monoethanolamine salt]
effect of light on viable cells (M. furfur; 8 ppm): no effect | holding growth down overnight in the original samples (M. furfur; 8 ppm): does not hold M. furfur growth down overnight | growth on mDixon agar plate (score) (M. furfur; 8 ppm 1 h, culture dilution 1:2, 409 nm light 1 min): + | growth on mDixon agar plate (score) (M. furfur; 8 ppm 1 h, culture dilution 1:2, 409 nm light 10 min): + | growth on mDixon agar plate (score) (M. furfur; 8 ppm 1 h, culture dilution 1:2, 409 nm light 60 min): + | growth on mDixon agar plate (score) (M. furfur; 8 ppm 1 h, culture dilution 1:2, Dark): + | growth on mDixon agar plate (score) (M. furfur; 8 ppm 1 h, culture dilution 1:20, 409 nm light 1 min): + | growth on mDixon agar plate (score) (M. furfur; 8 ppm 1 h, culture dilution 1:20, 409 nm light 10 min): + | growth on mDixon agar plate (score) (M. furfur; 8 ppm 1 h, culture dilution 1:20, 409 nm light 60 min): + | growth on mDixon agar plate (score) (M. furfur; 8 ppm 1 h, culture dilution 1:20, Dark): + | growth on mDixon agar plate (score) (M. furfur; 8 ppm 1 h, culture dilution 1:200, 409 nm light 1 min): +/− | growth on mDixon agar plate (score) (M. furfur; 8 ppm 1 h, culture dilution 1:200, 409 nm light 10 min): +/− | growth on mDixon agar plate (score) (M. furfur; 8 ppm 1 h, culture dilution 1:200, 409 nm light 60 min): +/− | growth on mDixon agar plate (score) (M. furfur; 8 ppm 1 h, culture dilution 1:200, Dark): +/− | growth on mDixon agar plate (score) (M. furfur; 8 ppm 1 h, culture dilution 1:2000, 409 nm light 1 min): +/− | growth on mDixon agar plate (score) (M. furfur; 8 ppm 1 h, culture dilution 1:2000, 409 nm light 10 min): +/− | growth on mDixon agar plate (score) (M. furfur; 8 ppm 1 h, culture dilution 1:2000, 409 nm light 60 min): +/− | growth on mDixon agar plate (score) (M. furfur; 8 ppm 1 h, culture dilution 1:2000, Dark): +/− | holding growth down overnight in the original samples (M. furfur; 16 and 32 ppm): 16 and 32 ppm do | fewer viable cells (M. furfur; 16 and 32 ppm, 1 minute of light exposure): about 10 fold | fewer cells (M. furfur; 16 and 32 ppm, longer light exposures): > 100 fold | growth on mDixon agar plate (score) (M. furfur; 16 ppm 1 h, culture dilution 1:2, 409 nm light 1 min): + | growth on mDixon agar plate (score) (M. furfur; 16 ppm 1 h, culture dilution 1:2, 409 nm light 10 min): +/− | growth on mDixon agar plate (score) (M. furfur; 16 ppm 1 h, culture dilution 1:2, 409 nm light 60 min): +/− | growth on mDixon agar plate (score) (M. furfur; 16 ppm 1 h, culture dilution 1:2, Dark): + | growth on mDixon agar plate (score) (M. furfur; 16 ppm 1 h, culture dilution 1:20, 409 nm light 1 min): +/− | growth on mDixon agar plate (score) (M. furfur; 16 ppm 1 h, culture dilution 1:20, 409 nm light 10 min): +/− | growth on mDixon agar plate (score) (M. furfur; 16 ppm 1 h, culture dilution 1:20, 409 nm light 60 min): +/− | growth on mDixon agar plate (score) (M. furfur; 16 ppm 1 h, culture dilution 1:20, Dark): + | growth on mDixon agar plate (score) (M. furfur; 16 ppm 1 h, culture dilution 1:200, 409 nm light 1 min): +/− | growth on mDixon agar plate (score) (M. furfur; 16 ppm 1 h, culture dilution 1:200, 409 nm light 10 min): − (0 to 5 colonies) | growth on mDixon agar plate (score) (M. furfur; 16 ppm 1 h, culture dilution 1:200, 409 nm light 60 min): − (0 to 5 colonies) | growth on mDixon agar plate (score) (M. furfur; 16 ppm 1 h, culture dilution 1:200, Dark): +/− | growth on mDixon agar plate (score) (M. furfur; 16 ppm 1 h, culture dilution 1:2000, 409 nm light 1 min): +/− | growth on mDixon agar plate (score) (M. furfur; 16 ppm 1 h, culture dilution 1:2000, 409 nm light 10 min): − (0 to 5 colonies) | growth on mDixon agar plate (score) (M. furfur; 16 ppm 1 h, culture dilution 1:2000, 409 nm light 60 min): − (0 to 5 colonies) | growth on mDixon agar plate (score) (M. furfur; 16 ppm 1 h, culture dilution 1:2000, Dark): +/− | growth on mDixon agar plate (score) (M. furfur; 32 ppm 1 h, culture dilution 1:2, 409 nm light 1 min): + | growth on mDixon agar plate (score) (M. furfur; 32 ppm 1 h, culture dilution 1:2, 409 nm light 10 min): +/− | growth on mDixon agar plate (score) (M. furfur; 32 ppm 1 h, culture dilution 1:2, 409 nm light 60 min): +/− | growth on mDixon agar plate (score) (M. furfur; 32 ppm 1 h, culture dilution 1:2, Dark): + | growth on mDixon agar plate (score) (M. furfur; 32 ppm 1 h, culture dilution 1:20, 409 nm light 1 min): +/− | growth on mDixon agar plate (score) (M. furfur; 32 ppm 1 h, culture dilution 1:20, 409 nm light 10 min): +/− | growth on mDixon agar plate (score) (M. furfur; 32 ppm 1 h, culture dilution 1:20, 409 nm light 60 min): +/− | growth on mDixon agar plate (score) (M. furfur; 32 ppm 1 h, culture dilution 1:20, Dark): + | growth on mDixon agar plate (score) (M. furfur; 32 ppm 1 h, culture dilution 1:200, 409 nm light 1 min): +/− | growth on mDixon agar plate (score) (M. furfur; 32 ppm 1 h, culture dilution 1:200, 409 nm light 10 min): +/− | growth on mDixon agar plate (score) (M. furfur; 32 ppm 1 h, culture dilution 1:200, 409 nm light 60 min): − (0 to 5 colonies) | growth on mDixon agar plate (score) (M. furfur; 32 ppm 1 h, culture dilution 1:200, Dark): +/− | growth on mDixon agar plate (score) (M. furfur; 32 ppm 1 h, culture dilution 1:2000, 409 nm light 1 min): +/− | growth on mDixon agar plate (score) (M. furfur; 32 ppm 1 h, culture dilution 1:2000, 409 nm light 10 min): − (0 to 5 colonies) | growth on mDixon agar plate (score) (M. furfur; 32 ppm 1 h, culture dilution 1:2000, 409 nm light 60 min): − (0 to 5 colonies) | growth on mDixon agar plate (score) (M. furfur; 32 ppm 1 h, culture dilution 1:2000, Dark): +/− | shortest light exposure time when applied in combination to give growth inhibition (M. furfur CBS 7982; 409 nm light, with the lowest inhibiting concentration): 1 min | growth, OD 600 nm (M. furfur CBS 7982; Piroctone Olamine 4 ppm 1 h, 409 nm light 0 min): 3.6 | growth, OD 600 nm (M. furfur CBS 7982; Piroctone Olamine 4 ppm 1 h, 409 nm light 1 min): 4.1 | growth, OD 600 nm (M. furfur CBS 7982; Piroctone Olamine 4 ppm 1 h, 409 nm light 10 min): 3.9 | growth, OD 600 nm (M. furfur CBS 7982; Piroctone Olamine 4 ppm 1 h, 409 nm light 60 min): 3.7 | growth, OD 600 nm (M. furfur CBS 7982; Piroctone Olamine 8 ppm 1 h, 409 nm light 0 min): 3.9 | growth, OD 600 nm (M. furfur CBS 7982; Piroctone Olamine 8 ppm 1 h, 409 nm light 1 min): 0.1 | growth, OD 600 nm (M. furfur CBS 7982; Piroctone Olamine 8 ppm 1 h, 409 nm light 10 min): 0.0 | growth, OD 600 nm (M. furfur CBS 7982; Piroctone Olamine 8 ppm 1 h, 409 nm light 60 min): 0.0 | growth, OD 600 nm (M. furfur CBS 7982; Piroctone Olamine 16 ppm 1 h, 409 nm light 0 min): 2.6 | growth, OD 600 nm (M. furfur CBS 7982; Piroctone Olamine 16 ppm 1 h, 409 nm light 1 min): 0.1 | growth, OD 600 nm (M. furfur CBS 7982; Piroctone Olamine 16 ppm 1 h, 409 nm light 10 min): 0.0 | growth, OD 600 nm (M. furfur CBS 7982; Piroctone Olamine 16 ppm 1 h, 409 nm light 60 min): 0.0 | growth, OD 600 nm (M. furfur CBS 7982; Piroctone Olamine 32 ppm 1 h, 409 nm light 0 min): 2.1 | growth, OD 600 nm (M. furfur CBS 7982; Piroctone Olamine 32 ppm 1 h, 409 nm light 1 min): 0.2 | growth, OD 600 nm (M. furfur CBS 7982; Piroctone Olamine 32 ppm 1 h, 409 nm light 10 min): 0.0 | growth, OD 600 nm (M. furfur CBS 7982; Piroctone Olamine 32 ppm 1 h, 409 nm light 60 min): 0.0 | growth, OD 600 nm (M. furfur CBS 7982; Piroctone Olamine 64 ppm 1 h, 409 nm light 0 min): 1.3 | growth, OD 600 nm (M. furfur CBS 7982; Piroctone Olamine 64 ppm 1 h, 409 nm light 1 min): 0.1 | growth, OD 600 nm (M. furfur CBS 7982; Piroctone Olamine 64 ppm 1 h, 409 nm light 10 min): 0.0 | growth, OD 600 nm (M. furfur CBS 7982; Piroctone Olamine 64 ppm 1 h, 409 nm light 60 min): 0.0 | lowest concentration to give growth inhibition (M. furfur CBS 7982; antimicrobial alone, no light, inhibition = OD <=50% of untreated control): 64 ppm | FIC value (M. furfur CBS 7982; antimicrobial plus 409 nm light): 0.14 | Combinatorial Effect (M. furfur CBS 7982; antimicrobial plus 409 nm light, classified by FIC value): synergistic | lowest concentration when applied in combination with light to give growth inhibition (M. furfur CBS 7982; with 409 nm light, inhibition = OD <=50% of untreated control): 8 ppm | Total PPIX (protoporphyrin IX (PPIX); Piroctone Olamine 6 ppm): 2.6 ng | Total PPIX (protoporphyrin IX (PPIX); Piroctone Olamine 8 ppm): 13.9 ng | Total PPIX (protoporphyrin IX (PPIX); Piroctone Olamine 16 ppm): 20.7 ng | Total PPIX (protoporphyrin IX (PPIX); Piroctone Olamine 32 ppm): 16.5 ng
